From patent publication US20100298141A1, “SUBSTITUTED PYRIDINE N-OXIDE HERBICIDES” (E. I. DU PONT DE NEMOURS AND COMPANY, priority 2007, published 2010)

Legend:
crabgrass = test: Test A pre-/postemergence greenhouse test; format: in vivo, Digitaria sanguinalis; settings: for Crabgrass, Large plant response rating: 0 to 100 scale; for Plant response rating, Crabgrass, Large: 0 to 100 scale where 0 is no effect and 100 is complete control
How it was run: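 Planting was into mixed loam soil and sand; preemergence treatment followed as a directed soil spray. Concurrently, emerged plants (one- to two-leaf, 2–10 cm) received postemergence applications of identically formulated compound (non-phytotoxic solvent, surfactant). After approximately ten days under greenhouse conditions, injury was judged by eye against untreated plants.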

downy brome = test: Test C pre-/postemergence test; format: in vivo, Bromus tectorum; settings: for Plant response rating, Bromegrass, Downy: 31 g ai/ha, scale 0 to 100 (0 no effect, 100 complete control)
How it was run: (§1)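 Compounds in a non-phytotoxic solvent with surfactant applied preemergence to seeded pots and, at the same time, postemergence to plants 2–18 cm tall (1- to 4-leaf stage). Paddy tests: pots flooded to 3 cm, compound applied into the water, depth held throughout.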

catchweed bedstraw = test: Test C pre-/postemergence test; format: in vivo, Galium aparine; settings: for Plant response rating, Galium: 31 g ai/ha, scale 0 to 100 (0 no effect, 100 complete control)
How it was run: as §1

Russian thistle = test: Test C pre-/postemergence test; format: in vivo, Salsola kali; settings: for Plant response rating, Russian Thistle: 31 g ai/ha, scale 0 to 100 (0 no effect, 100 complete control)
Text: Seeds of plant species selected from blackgrass (Alopecurus myosuroides), downy brome (Bromus tectorum), green foxtail (Setaria viridis), Italian ryegrass (Lolium multiflorum), wheat (Triticum aestivum), wild oat (Avena fatua), catchweed bedstraw (Galium aparine), Russian thistle (Salsola kali), […] (Cynodon dactylon), Surinam grass (Brachiaria decumbens), cocklebur (Xanthium strumarium), corn (Zea mays), crabgrass (Digitaria sanguinalis), woolly cupgrass (Eriochloa villosa), giant foxtail (Setaria faberii), Goosegrass (Eleusin indica), johnsongrass (Sorghum halepense), kochia (Kochia scoparia), lambsquarters (Chenopodium album), morningglory (Ipomoea coccinea), eastern black nightshade (Solanum ptycanthum), yellow nutsedge (Cyperus esculentus), pigweed (Amaranthus retroflexus), common ragweed (Ambrosia elation), soybean (Glycine max), common (oilseed) sunflower (Helianthus annuus), and velvetleaf (Abutilon theophrasti) were planted and treated preemergence with test chemicals formulated in a non-phytotoxic solvent mixture which included a surfactant. At the same time, plants selected from these crop and weed species and also winter barley (Hordeum vulgare), canarygrass (Phalaris minor), and chickweed (Stellaria media) were treated with postemergence applications of some of the test chemicals formulated in the same manner. Plants ranged in height from 2 to 18 cm (1- to 4-leaf stage) for postemergence treatments. […] At time of treatment, test pots were flooded to 3 cm above the soil surface, treated by application of test compounds directly to the paddy water, and then maintained at that water depth for the duration of the test. […] A dash (-) response means no test result.

Surinam grass = test: Test F preemergence test; format: in vivo, Brachiaria decumbens; settings: scale 0 to 100
How it was run: (§2)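 Test chemicals were formulated in a non-phytotoxic solvent mixture with surfactant and applied preemergence to planted seeds or postemergence to sugarcane plants. Plants were kept in a greenhouse for 14 to 21 days, then visually evaluated against controls.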

large crabgrass = test: Test F preemergence test; format: in vivo, Digitaria sanguinalis; settings: scale 0 to 100
How it was run: as §2

green foxtail = test: Test F preemergence test; format: in vivo, Setaria viridis; settings: scale 0 to 100
How it was run: as §2

goosegrass = test: Test F preemergence test; format: in vivo, Eleusine indica; settings: scale 0 to 100
How it was run: as §2

johnsongrass = test: Test F preemergence test; format: in vivo, Sorghum halepense; settings: scale 0 to 100
How it was run: as §2

common ragweed = test: Test F preemergence test; format: in vivo, Ambrosia elation; settings: scale 0 to 100
How it was run: as §2

southern sandbur = test: Test F preemergence test; format: in vivo, Cenchrus echinatus; settings: scale 0 to 100
How it was run: as §2

Italian ryegrass = test: Test F preemergence test; format: in vivo, Lolium multiflorum; settings: scale 0 to 100
How it was run: as §2

itchgrass = test: Test F preemergence test; format: in vivo, Rottboellia cochinchinensis; settings: scale 0 to 100
How it was run: as §2

field bindweed = test: Test F preemergence test; format: in vivo, Convolvulus arvensis; settings: scale 0 to 100
How it was run: as §2

[1] = Postemergence, 125 g ai/ha, 0 is no effect, 100 is complete control
[2] = Postemergence, 500 g ai/ha, 0 is no effect, 100 is complete control
[3] = Preemergence, 125 g ai/ha, 0 no effect, 100 complete control
[4] = 62 g ai/ha, Preemergence, scale 0 to 100
[5] = preemergence, 250 g ai/ha, scale 0 (no effect) to 100 (complete control)
[6] = 125 g ai/ha, preemergence, scale 0 (no effect) to 100 (complete control)

SMILES: Cc1cc[n+]([O-])c(S(=O)(=O)Cc2c(C(F)(F)F)nn(C)c2Cl)c1 [Compound 19]
- Crabgrass, Large plant response rating (crabgrass; [1]): 40
- Crabgrass, Large plant response rating (crabgrass; [2]): 80
- Crabgrass, Large plant response rating (crabgrass; [3]): 70
- Plant response rating, Crabgrass, Large (crabgrass; Preemergence, 500 g ai/ha): 100
- Bromegrass, Downy plant response rating (downy brome; [4]): 0
- Plant response rating, Bromegrass, Downy (downy brome; Preemergence): 0
- Plant response rating (0 to 100), Bromegrass, Downy (downy brome; Preemergence, 250 g ai/ha): 0
- Bromegrass, Downy plant response rating (downy brome; preemergence, 125 g ai/ha, scale 0 (no effect) to 100 (complete control)): 0
- Galium plant response rating (catchweed bedstraw; [4]): 100
- Plant response rating, Galium (catchweed bedstraw; Preemergence): 85
- Plant response rating (0 to 100), Galium (catchweed bedstraw; Preemergence, 250 g ai/ha): 100
- Russian Thistle plant response rating (Russian thistle; [4]): 100
- Plant response rating, Russian Thistle (Russian thistle; Preemergence): 100
- Surinam Grass plant response rating (Surinam grass; 62 g ai/ha, Preemergence): 75
- Surinam Grass plant response rating (Surinam grass; 125 g ai/ha, preemergence): 90
- Plant response rating, Surinam Grass (Surinam grass; Preemergence, 31 g ai/ha): 30
- Crabgrass, Large plant response rating (large crabgrass; 62 g ai/ha, Preemergence): 80
- Crabgrass, Large plant response rating (large crabgrass; 125 g ai/ha, preemergence): 95
- Plant response rating, Crabgrass, Large (large crabgrass; Preemergence, 16 g ai/ha): 35
- Plant response rating, Crabgrass, Large (large crabgrass; Preemergence, 31 g ai/ha): 50
- Foxtail, Green plant response rating (green foxtail; 62 g ai/ha, Preemergence): 75
- Foxtail, Green plant response rating (green foxtail; 125 g ai/ha, preemergence): 90
- Plant response rating, Foxtail, Green (green foxtail; Preemergence, 16 g ai/ha): 0
- Plant response rating, Foxtail, Green (green foxtail; Preemergence, 31 g ai/ha): 50
- Goosegrass plant response rating (goosegrass; 62 g ai/ha, Preemergence): 90
- Goosegrass plant response rating (goosegrass; 125 g ai/ha, preemergence): 100
- Plant response rating, Goosegrass (goosegrass; Preemergence, 16 g ai/ha): 0
- Plant response rating, Goosegrass (goosegrass; Preemergence, 31 g ai/ha): 75
- Johnsongrass plant response rating (johnsongrass; 62 g ai/ha, Preemergence): 90
- Johnsongrass plant response rating (johnsongrass; 125 g ai/ha, preemergence): 98
- Plant response rating, Johnsongrass (johnsongrass; Preemergence, 16 g ai/ha): 40
- Plant response rating, Johnsongrass (johnsongrass; Preemergence, 31 g ai/ha): 75
- Ragweed plant response rating (common ragweed; 62 g ai/ha, Preemergence): 50
- Ragweed plant response rating (common ragweed; 125 g ai/ha, preemergence): 80
- Plant response rating, Ragweed (common ragweed; Preemergence, 16 g ai/ha): 0
- Plant response rating, Ragweed (common ragweed; Preemergence, 31 g ai/ha): 25
- Sandbur plant response rating (southern sandbur; 62 g ai/ha, Preemergence): 90
- Sandbur plant response rating (southern sandbur; 125 g ai/ha, preemergence): 100
- Plant response rating, Sandbur (southern sandbur; Preemergence, 31 g ai/ha): 60
- Ryegrass, Italian plant response rating (Italian ryegrass; 62 g ai/ha, Preemergence): 50
- Ryegrass, Italian plant response rating (Italian ryegrass; 125 g ai/ha, preemergence): 65
- Plant response rating, Ryegrass, Italian (Italian ryegrass; Preemergence, 16 g ai/ha): 0
- Plant response rating, Ryegrass, Italian (Italian ryegrass; Preemergence, 31 g ai/ha): 10
- Itchgrass plant response rating (itchgrass; 62 g ai/ha, Preemergence): 25
- Itchgrass plant response rating (itchgrass; 125 g ai/ha, preemergence): 50
- Plant response rating, Itchgrass (itchgrass; Preemergence, 16 g ai/ha): 0
- Plant response rating, Itchgrass (itchgrass; Preemergence, 31 g ai/ha): 0
- Field Bindweed plant response rating (field bindweed; 62 g ai/ha, Preemergence): 0
- Field Bindweed plant response rating (field bindweed; 125 g ai/ha, preemergence): 15
- Plant response rating, Field Bindweed (field bindweed; Preemergence, 16 g ai/ha): 0
- Plant response rating, Field Bindweed (field bindweed; Preemergence, 31 g ai/ha): 0

SMILES: Cc1cc[n+]([O-])c(S(=O)(=O)C(Cl)c2c(C(F)(F)F)nn(C)c2OCC(F)(F)F)c1 (racemic) [Compound 37]
- Crabgrass, Large plant response rating (crabgrass; [1]): 30
- Crabgrass, Large plant response rating (crabgrass; [2]): 80
- Crabgrass, Large plant response rating (crabgrass; [3]): 60
- Plant response rating, Crabgrass, Large (crabgrass; Preemergence, 500 g ai/ha): 90
- Plant response rating, Bromegrass, Downy (downy brome; Preemergence): 0
- Bromegrass, Downy plant response rating (downy brome; [5]): 60
- Plant response rating, Galium (catchweed bedstraw; Preemergence): 80
- Galium plant response rating (catchweed bedstraw; [5]): 80
- Plant response rating, Russian Thistle (Russian thistle; Preemergence): 100
- Russian Thistle plant response rating (Russian thistle; [5]): 100
- Plant response rating, Surinam Grass (Surinam grass; 16 g ai/ha, preemergence): 0
- Surinam Grass plant response rating (Surinam grass; 125 g ai/ha, preemergence): 90
- Plant response rating, Surinam Grass (Surinam grass; Preemergence, 62 g ai/ha): 60
- Plant response rating, Surinam Grass (Surinam grass; Preemergence, 31 g ai/ha): 60
- Plant response rating, Crabgrass, Large (large crabgrass; 16 g ai/ha, preemergence): 0
- Crabgrass, Large plant response rating (large crabgrass; 62 g ai/ha, Preemergence): 50
- Crabgrass, Large plant response rating (large crabgrass; 125 g ai/ha, preemergence): 50
- Plant response rating, Crabgrass, Large (large crabgrass; Preemergence, 31 g ai/ha): 35
- Plant response rating, Foxtail, Green (green foxtail; 16 g ai/ha, preemergence): 0
- Foxtail, Green plant response rating (green foxtail; 62 g ai/ha, Preemergence): 15
- Foxtail, Green plant response rating (green foxtail; 125 g ai/ha, preemergence): 90
- Plant response rating, Foxtail, Green (green foxtail; Preemergence, 31 g ai/ha): 10
- Plant response rating, Goosegrass (goosegrass; 16 g ai/ha, preemergence): 65
- Goosegrass plant response rating (goosegrass; 62 g ai/ha, Preemergence): 75
- Goosegrass plant response rating (goosegrass; 125 g ai/ha, preemergence): 98
- Plant response rating, Goosegrass (goosegrass; Preemergence, 31 g ai/ha): 65
- Plant response rating, Johnsongrass (johnsongrass; 16 g ai/ha, preemergence): 30
- Johnsongrass plant response rating (johnsongrass; 62 g ai/ha, Preemergence): 75
- Johnsongrass plant response rating (johnsongrass; 125 g ai/ha, preemergence): 100
- Plant response rating, Johnsongrass (johnsongrass; Preemergence, 31 g ai/ha): 75
- Plant response rating, Ragweed (common ragweed; 16 g ai/ha, preemergence): 0
- Ragweed plant response rating (common ragweed; 125 g ai/ha, preemergence): 0
- Plant response rating, Ragweed (common ragweed; Preemergence, 62 g ai/ha): 0
- Plant response rating, Ragweed (common ragweed; Preemergence, 31 g ai/ha): 0
- Plant response rating, Sandbur (southern sandbur; 16 g ai/ha, preemergence): 35
- Sandbur plant response rating (southern sandbur; 125 g ai/ha, preemergence): 90
- Plant response rating, Sandbur (southern sandbur; Preemergence, 62 g ai/ha): 90
- Plant response rating, Sandbur (southern sandbur; Preemergence, 31 g ai/ha): 70
- Plant response rating, Ryegrass, Italian (Italian ryegrass; 16 g ai/ha, preemergence): 20
- Ryegrass, Italian plant response rating (Italian ryegrass; 125 g ai/ha, preemergence): 100
- Plant response rating, Ryegrass, Italian (Italian ryegrass; Preemergence, 62 g ai/ha): 90
- Plant response rating, Ryegrass, Italian (Italian ryegrass; Preemergence, 31 g ai/ha): 75
- Plant response rating, Itchgrass (itchgrass; 16 g ai/ha, preemergence): 0
- Itchgrass plant response rating (itchgrass; 62 g ai/ha, Preemergence): 35
- Itchgrass plant response rating (itchgrass; 125 g ai/ha, preemergence): 80
- Plant response rating, Itchgrass (itchgrass; Preemergence, 31 g ai/ha): 0
- Plant response rating, Field Bindweed (field bindweed; 16 g ai/ha, preemergence): 0
- Field Bindweed plant response rating (field bindweed; 62 g ai/ha, Preemergence): 0
- Field Bindweed plant response rating (field bindweed; 125 g ai/ha, preemergence): 0
- Plant response rating, Field Bindweed (field bindweed; Preemergence, 31 g ai/ha): 0

SMILES: Cn1nc(C(F)(F)F)c(C[S+]([O-])c2cccc[n+]2[O-])c1OCC(F)F (stereo not drawn) [Compound 75]
- Plant response rating, Crabgrass, Large (crabgrass; Postemergence, 125 g ai/ha): 70
- Crabgrass, Large plant response rating (crabgrass; [2]): 80
- Crabgrass, Large plant response rating (crabgrass; [3]): 70
- Plant response rating, Crabgrass, Large (crabgrass; Preemergence, 500 g ai/ha): 100
- Bromegrass, Downy plant response rating (downy brome; [4]): 50
- Bromegrass, Downy plant response rating (downy brome; [6]): 85
- Plant response rating, Bromegrass, Downy (downy brome; Preemergence): 40
- Bromegrass, Downy plant response rating (downy brome; [5]): 90
- Galium plant response rating (catchweed bedstraw; [4]): 100
- Galium plant response rating (catchweed bedstraw; [6]): 100
- Plant response rating, Galium (catchweed bedstraw; Preemergence): 80
- Galium plant response rating (catchweed bedstraw; [5]): 100
- Russian Thistle plant response rating (Russian thistle; [4]): 100
- Russian Thistle plant response rating (Russian thistle; [6]): 100
- Plant response rating, Russian Thistle (Russian thistle; Preemergence): 100
- Russian Thistle plant response rating (Russian thistle; [5]): 100
